Measurements: US10947210B2 (priority 2015, dated 2021)
Read-outs that look alike come from different tables or passages of the source.

Assays:
[1] = biological target: HCV RNA-dependent RNA polymerase (NS5B) (Hepatitis C virus genotype 1b (isolate BK) (HCV), UniProt P26663); assay: RNA-Dependent RNA HCV NS5B (polymerase) Assay and IC50 Determination; type: biochemical; conditions: purified HCV NS5B polymerase, polyA:U16 substrate, 32P-UTP incorporation
Method in brief: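 Purified NS5B was incubated with 0.5 uM polyA:U16, 10 μM UTP plus ^32P-UTP in 50 mM Hepes-KOH pH 7.5, 5 mM MgCl2, 5 mM DTT, 2% glycerol and 0.01% Triton X-100. Inhibitor reactions ran 60 min at 37° C, and radiolabelled RNA product was quantified after filter capture. IC50 values were obtained from concentration series.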

[2] = test system: HCV subgenomic RNA replicon in Huh-luc/neo-ET cells; assay: HCV Replicon Assay and EC50 Determination; type: cell-based; conditions: Hepatitis C virus, 72 hours, luciferase reporter activity
Description: HCV Replicon Assay and EC50 Determination.
HCV replicon assay is based on the luciferase reporter cell line (Huh-luc/neo-ET). This reporter cell line is a human liver carcinoma cell line (Huh-7) stably transfected with an autonomously replicating bicistronic HCV subgenomic RNA replicon (Lohmann et al., 1999, Science, 285, 110-113). Inhibition of HCV RNA replication was monitored through analysis of reporter luciferase activity. Briefly, HCV replicon cells were incubated with inhibitors for 72 hours at 37° C. After the incubation, duplicate plates were treated and incubated in parallel for assessment of cellular toxicity by XTT staining and anti-HCV activity by measurement of luciferase reporter activity. Either human interferon alpha 2B or ribavirin was used as a reference compound. EC50 values were determined using GraFit (Erithaus software) or Excel.
Table 2 presents EC50 data obtained using this HCV replicaon assay to test representative compounds. Data are presented as follows: “+++” means <0.1 μM; “++” means ≥0.1 μM and <1.0 μM; “+” means ≥1.0 μM.

Chain of HCV RNA-dependent RNA polymerase (NS5B) (P26663 2420-3010): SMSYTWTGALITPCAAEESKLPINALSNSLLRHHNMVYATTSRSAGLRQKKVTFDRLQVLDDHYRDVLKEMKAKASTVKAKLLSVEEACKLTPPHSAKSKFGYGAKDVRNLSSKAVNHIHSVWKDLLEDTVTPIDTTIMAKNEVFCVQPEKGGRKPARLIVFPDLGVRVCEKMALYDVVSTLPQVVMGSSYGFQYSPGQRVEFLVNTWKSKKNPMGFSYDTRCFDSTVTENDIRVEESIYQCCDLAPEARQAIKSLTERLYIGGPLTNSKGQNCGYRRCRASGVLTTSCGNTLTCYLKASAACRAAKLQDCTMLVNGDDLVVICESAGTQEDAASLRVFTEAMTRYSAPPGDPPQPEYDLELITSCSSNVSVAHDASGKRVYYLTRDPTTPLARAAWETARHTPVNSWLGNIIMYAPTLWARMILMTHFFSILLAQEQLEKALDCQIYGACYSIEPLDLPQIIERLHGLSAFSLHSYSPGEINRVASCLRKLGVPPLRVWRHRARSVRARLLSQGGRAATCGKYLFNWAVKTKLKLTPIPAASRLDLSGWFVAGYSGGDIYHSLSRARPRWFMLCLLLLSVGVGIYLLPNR

SMILES | IC50 ([1]; read-out: IC50) [µM] | EC50 [2] [nM] | IC50 ([1]; IC50 (μM)) [µM]
CNC(=O)c1c(-c2ccc(F)cc2)oc2cc(N(CC(=O)NC(C)C(=O)NCc3cccc(C(=O)C=C(O)C(=O)O)c3)S(C)(=O)=O)c(C3CC3)cc12 (stereo not shown) [Compound 09-14F, 4-(3-{[2-(2-{[5-Cyclopropyl-2-(4-fluoro-phenyl)-3-methylcarbamoyl-benzofuran-6-yl]-methanesulfonyl-amino}-acetylamino)-propionylamino]-methyl}-phenyl)-2-hydroxy-4-oxo-but-2-enoic Acid] | > 1 | 100 to 1000 | 
CNC(=O)c1c(-c2ccc(F)cc2)oc2cc(N(CCOCCCc3cccc(C(=O)/C=C(\O)C(=O)O)c3)S(C)(=O)=O)c(C3CC3)cc12 [Compound 22-12, 4-(3-(3-(2-(N-(5-cyclopropyl-2-(4-fluorophenyl)-3-(methylcarbamoyl)benzofuran-6-yl)methylsulfonamido)-ethoxy)-propyl)-phenyl)-2-hydroxy-4-oxobut-2-enoic Acid] | > 1 | < 100 | 
CNC(=O)c1c(-c2ccc(F)cc2)oc2cc(N(CC(=O)NC3(C(=O)NCc4cccc(C(=O)C=C(O)C(=O)O)c4)CCCC3)S(C)(=O)=O)c(C3CC3)cc12 [Compound 09-14E, 4-[3-({[1-(2-{[5-Cyclopropyl-2-(4-fluoro-phenyl)-3-methylcarbamoyl-benzofuran-6-yl]-methanesulfonyl-amino}-acetylamino)-cyclopentanecarbonyl]-amino}-methyl)-phenyl]-2-hydroxy-4-oxo-but-2-enoic Acid] | > 1 | 100 to 1000 | 
CNC(=O)c1c(-c2ccc(F)cc2)oc2cc(N(CCOCCOCc3cccc(C(C)=O)c3)S(C)(=O)=O)c(C3CC3)cc12 [Compound 02-8A, 6-(N-(2-(2-(3-Acetylbenzyloxy)-ethoxy)-ethyl)-methylsulfonamido)-5-cyclopropyl-2-(4-fluorophenyl)-N-methylbenzofuran-3-carboxamide] |  | < 100 | > 1
CNC(=O)c1c(-c2ccc(F)cc2)oc2cc(N(CCOCCOCc3ccc(C(=O)O)cc3)S(C)(=O)=O)c(C3CC3)cc12 [Compound 06-7B, 4-[2-(2-{[5-Cyclopropyl-2-(4-fluoro-phenyl)-3-methylcarbamoyl-benzofuran-6-yl]-methanesulfonyl-amino}-ethoxy)-ethoxymethyl]-benzoic Acid] | 0.1 to 1 | 100 to 1000 | 
CNC(=O)c1c(-c2ccc(F)cc2)oc2cc(N(CC(=O)NCC(=O)NCc3cccc(C(=O)/C=C(\O)C(=O)O)c3)S(C)(=O)=O)c(C3CC3)cc12 [Compound 09-14A, 4-(3-{[2-(2-{[5-Cyclopropyl-2-(4-fluoro-phenyl)-3-methylcarbamoyl-benzofuran-6-yl]-methanesulfonyl-amino}-acetylamino)-acetylamino]-methyl}-phenyl)-2-hydroxy-4-oxo-but-2-enoic Acid] | 0.1 to 1 | 100 to 1000 | 
CNC(=O)c1c(-c2ccc(F)cc2)oc2cc(N(CCOCCOCCOCCOCCOCCOCc3cccc(C(=O)/C=C(\O)C(=O)O)c3)S(C)(=O)=O)c(C3CC3)cc12 [Compound 02-10E, 4-(3-{2-[2-(2-{2-[2-(2-{[5-Cyclopropyl-2-(4-fluoro-phenyl)-3-methylcarbamoyl-benzofuran-6-yl]-methanesulfonyl-amino}-ethoxy)-ethoxy]-ethoxy}-ethoxy)-ethoxy]-ethoxymethyl}-phenyl)-2-hydroxy-4-oxo-but-2-enoic Acid] | > 1 | 100 to 1000 | 
CNC(=O)c1c(-c2ccc(F)cc2)oc2cc(N(CCOCCOCc3cccc(C(=O)O)c3)S(C)(=O)=O)c(C3CC3)cc12 [Compound 06-7C, 3-[2-(2-{[5-Cyclopropyl-2-(4-fluoro-phenyl)-3-methylcarbamoyl-benzofuran-6-yl]-methanesulfonyl-amino}-ethoxy)-ethoxymethyl]-benzoic Acid] | 0.1 to 1 | < 100 | 
CNC(=O)c1c(-c2ccc(F)cc2)oc2cc(N(CCOCCOCCOCC(=O)O)S(C)(=O)=O)c(C3CC3)cc12 [Compound 23-6A, {2-[2-(2-{[5-Cyclopropyl-2-(4-fluoro-phenyl)-3-methylcarbamoyl-benzofuran-6-yl]-methanesulfonyl-amino}-ethoxy)-ethoxy]-ethoxy}-acetic Acid] | 0.1 to 1 | 100 to 1000 | 
CNC(=O)c1c(-c2ccc(F)cc2)oc2cc(N(CCCCCOCc3ccc(C(=O)O)cc3)S(C)(=O)=O)c(C3CC3)cc12 [Compound 16-7, 4-(5-{[5-Cyclopropyl-2-(4-fluoro-phenyl)-3-methylcarbamoyl-benzofuran-6-yl]-methanesulfonyl-amino}-pentyloxymethyl)-benzoic Acid] | 0.1 to 1 | < 100 | 
CNC(=O)c1c(-c2ccc(F)cc2)oc2cc(N(CCOCCOCCOCC(=O)NO)S(C)(=O)=O)c(C3CC3)cc12 [Compound 23-6C, 5-Cyclopropyl-2-(4-fluoro-phenyl)-6-({2-[2-(2-hydroxycarbamoylmethoxy-ethoxy)-ethoxy]-ethyl}-methanesulfonyl-amino)-benzofuran-3-carboxylic Acid Methylamide] |  | < 100 | 0.1 to 1
CNC(=O)c1c(-c2ccc(F)cc2)oc2cc(N(CCOCCOCCOC(C(=O)O)c3ccccc3)S(C)(=O)=O)c(C3CC3)cc12 (stereo not shown) [Compound 25-5, {2-[2-(2-{[5-Cyclopropyl-2-(4-fluoro-phenyl)-3-methylcarbamoyl-benzofuran-6-yl]-methanesulfonyl-amino}-ethoxy)-ethoxy]-ethoxy}-phenyl-acetic Acid] | 0.1 to 1 | 100 to 1000 | 
CNC(=O)c1c(-c2ccc(F)cc2)oc2cc(N(CCOCCOCc3cccc(C(=O)/C=C(\O)C(=O)O)c3)S(C)(=O)=O)c(C3CC3)cc12 [Compound 02-10A, 4-{3-[2-(2-{[5-Cyclopropyl-2-(4-fluoro-phenyl)-3-methylcarbamoyl-benzofuran-6-yl]-methanesulfonyl-amino}-ethoxy)-ethoxymethyl]-phenyl}-2-hydroxy-4-oxo-but-2-enoic Acid] | 0.1 to 1 | < 100 | 
CNC(=O)c1c(-c2ccc(F)cc2)oc2cc(N(CCOCCCOCc3cccc(C(=O)/C=C(\O)C(=O)O)c3)S(C)(=O)=O)c(C3CC3)cc12 [Compound 03-8B, 4-{3-[3-(2-{[5-Cyclopropyl-2-(4-fluoro-phenyl)-3-methylcarbamoyl-benzofuran-6-yl]-methanesulfonyl-amino}-ethoxy)-propoxymethyl]-phenyl}-2-hydroxy-4-oxo-but-2-enoic Acid] | > 1 | < 100 | 
